Values quoted from earlier work, collected in publication PMC4691889 (Genes & Development, 2015).

Test system: NTMT1
Details: inhibition of NTMT1, determined in previous studies; ref Richardson et al. 2015

Nc1ncnc2c1ncn2[C@@H]1O[C@H](CSCC[C@H](N)C(=O)O)[C@@H](O)[C@H]1O [SAH, S-adenosyl-L-homocysteine]
IC50: 3.3 µM
